In PMC6755085, “Cyclic oligoadenylate signalling mediates Mycobacterium tuberculosis CRISPR defence” (Nucleic Acids Research, 2019):

Biological target: T1, TsuCsx1 (Thioalkalivibrio sulfidiphilus, UniProt B8GSI1)
T1 construct: gene Tgr7_1803; full-length; N-terminal His8 fusion (pEV5HisTEV), no tag cleavage described; synthetic gene; E. coli C43; dimer
Experiment: activation of cleavage of […]-labelled RNA, denaturing PAGE
Type: biochemical
Settings: synthetic cA4, 1 µM; 0.5 µM TsuCsx1 dimer; 20 mM Tris-HCl, 150 mM NaCl, 1 mM DTT, pH 7.5; 35 °C; activator

T1 sequence (B8GSI1 entry or part of it): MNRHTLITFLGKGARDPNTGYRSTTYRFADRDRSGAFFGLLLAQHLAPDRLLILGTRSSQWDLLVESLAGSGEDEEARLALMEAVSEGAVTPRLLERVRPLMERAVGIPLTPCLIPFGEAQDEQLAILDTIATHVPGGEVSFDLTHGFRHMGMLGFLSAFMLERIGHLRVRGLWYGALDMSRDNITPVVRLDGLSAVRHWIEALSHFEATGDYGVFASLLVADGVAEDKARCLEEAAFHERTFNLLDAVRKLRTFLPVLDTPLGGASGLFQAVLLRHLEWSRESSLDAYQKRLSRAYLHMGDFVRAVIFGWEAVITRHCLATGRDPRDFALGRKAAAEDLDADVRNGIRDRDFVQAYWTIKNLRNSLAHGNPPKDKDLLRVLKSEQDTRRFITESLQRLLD

SMILES: Nc1ncnc2c1ncn2[C@@H]1O[C@@H]2COP(=O)(O)O[C@H]3[C@@H](O)[C@H](n4cnc5c(N)ncnc54)O[C@@H]3COP(=O)(O)O[C@H]3[C@@H](O)[C@H](n4cnc5c(N)ncnc54)O[C@@H]3COP(=O)(O)O[C@H]3[C@@H](O)[C@H](n4cnc5c(N)ncnc54)O[C@@H]3COP(=O)(O)O[C@H]2[C@H]1O [cA4]
- activation of cleavage of 32P-labelled RNA, denaturing PAGE: TsuCsx1 was strongly activated by synthetic cA4 but not by cA6
